Measurements reported in patent US20230277669A1, “USES OF UROLITHINS” (Amazentis SA, priority 2022, published 2023).

Tested on: CD8+ T cells
Experiment: In vitro stimulation of CD3+ T cells with aCD3/aCD28 beads in presence of UA
Type: cell-based, FVB mice
Settings: 48 h, ICG001 with UA
Method: (FIG. 2A) Scheme of CD3+ T-cell activation and analysis for various timepoints. (FIG. 2B) Reduced effector molecule expression on in vitro treated cells (n=3 pooled from three independent experiments). Isolated T-cells were stimulated for 48 h at the presence of UA or DMSO in the indicated doses. Data are mean ± SD, *p < 0.05 by two-sided t-test. (FIG. 2C) Reduced effector molecule expression on in vitro treated cells (n=3 pooled from three independent experiments). Isolated T-cells were stimulated for 48 h at the presence of UA or DMSO in the indicated doses. Data are mean ± SD, *p < 0.05 by two-sided t-test. (FIG. 2D) Quantification of T memory stem cells (TSCM: CD44^-CD62L^+Sca1^hi) after 24 h, 48 h and 96 h post stimulation with aCD3/aCD28 stimulation beads as indicated in (A) (n=4 pooled from four independent experiments). Data are mean ± SD, statistical analysis was performed via two-sided t-test (*p < 0.05; **p < 0.01; n.s. not significant). (FIG. 2E) Mitochondrial membrane potential within naïve CD62L^+CD44^-CD8^+ T cells, with TMRM^lo representing cells with low mitochondrial membrane potential. Cells were stimulated for 48 h as depicted in (A). Data are mean ± SD, n=4; ***p <0.001 by two-sided t-test. Experiment was repeated twice in independent experiments. (FIG. 2F) Representative histogram and quantification of memory marker CD95 expression in CD62L^+CD44^-CD8^+ cells, 48 hours after in vitro stimulation. Data are mean ± SD; n=5; ****p < 0.0001 by two-sided t-test. Data depicts one of two independent experiments. (FIG. 2G) Analysis of TIL of UA-fed mice, treated as depicted in FIG. 1J. Percentage of TSCM within CD8+ (G; n=7), as well as TCF1 (H; n=7) PD1^hi,Tim3^hi and CTLA4hi (I-K, all n=6) in the TIL CD8+ population are shown. Data are mean ± SD, statistical analysis was performed via two-sided t-test (*p < 0.05; **p < 0.01;, ***p <0.001.). Data depicts one of two independent experiments. (FIG. 2H) The same experiment as FIG. 2G with TCF1 (n=7) in the TIL CD8+ population. (FIG. 2I) The same experiment as FIG. 2G with PD1^hi (n=6) in the TIL CD8+ population. (FIG. 2J) The same experiment as FIG. 2G with Tim3^hi (n=6) in the TIL CD8+ population. (FIG. 2K) The same experiment as FIG. 2G with CTLA4hi (n=6) in the TIL CD8+ population. (FIG. 2L) Flow cytometry readout of ex vivo cytokine release of previously isolated TIL upon re-stimulation with PMA/ionomycin. Data are mean ± SD with n=7 per group. Statistical analysis was performed by two-sided t-test (**p < 0.01). One out of two independent experiments are shown. (FIG. 2M) Flow cytometry readout of ex vivo cytokine release of previously isolated TIL upon re-stimulation with PMA/ionomycin. Data are mean ± SD with n=7 per group. Statistical analysis was performed by two-sided t-test (**p < 0.01). One out of two independent experiments are shown.
(FIG. 4A) Scheme of CD3+ T-cell activation and analysis for various timepoints in order to investigate mitophagy induction in vitro. (FIG. 4B) Analysis of mitochondrial membrane potential within CD8+ T cells, with TMRM^lo representing cells with low mitochondrial membrane potential. Analysis was performed six hours after stimulation with aCD/aCD28 stimulation beads at the presence of the indicated treatments. N=4 per group, *p < 0.05 by Mann Whitney U test. One of two independent experiments are shown. (FIG. 4C) Representative flow histogram and quantification of lysosome formation in CD8+ cells six hours after in vitro stimulation. MFI shown relative to DMSO controls, n=4. Data are normalised mean ± SD, statistical analysis by two-sided t-test. One out of two independent experiments are shown. (FIG. 4D) Mitotracker Red staining of in vitro stimulated CD8+ cells after 24 hours of Urolithin A (UA25 n=6; UA50 n=6) or vehicle control treatment (DMSO: n=4). A representative flow histogram depicting identification of Mitotracker^hi cells is shown. […]

Compound: O=C1[C@H](Cc2ccc(O)cc2)N2C(=O)CCN(C(=O)NCc3ccccc3)[C@H]2CN1Cc1cccc2ccccc12 [ICG001, reference compound]
- UA-induced TCF1 expression: abrogated
- UA-induced TSCM formation: abrogated
